# From patent publication US20100075993A1, “SMALL MOLECULE INHIBITORS AGAINST WEST NILE VIRUS REPLICATION” (DREXEL UNIVERSITY, priority 2005, published 2010)
# What was measured:
# [1] = test system: BHK 26.5 replicon cells; assay: MTT toxicity assay on BHK 26.5 replicon cells; format: cell-based; details: MTT assay
# Description: The HTS strategy follows the flowchart outlined in FIG. 2. 35,000 compounds were screened from a chemical library described below, using a cutoff of 50% reduction in luminescence readout as the criteria for further study. Upon completion of the screen, approximately 1100 compounds were selected, making the hit rate of 3%. This is considerably higher than expected, implying many false positive and/or cytotoxic compounds. Nevertheless, the compounds were picked out from the “daughter” plates and re-checked at a single 10 μM concentration. In addition, a duplicate 96 well plates were also plated and the toxicity of the compounds was determined in an MTT assay. Upon completion of these assays, most compounds were disqualified as either false positives or being toxicity to cells. As a result, only a small number of compounds were further analyzed directly from the “mother” plate stock. After IC50 determination and secondary assay to rule out luciferase inhibitors, 23 “hits” were identified.
# (§1) Replicon-harboring cells were plated 96-well plates at 10,000 cells per well in MEM plus 3% FBS. 24 hours after plating, compounds were added to the wells by a Robotic liquid handler (Biomek NX) to a final concentration of 10 μM and 1% DMSO. For each 96 well plate, A1 to A8 were left open, H1 to H4 contained 1% DMSO, H5-H8 contained Mycophenolic acid (Sigma-Aldrich, St. Louis, Mo.), which was included as positive controls. After 24 hours of treatment, the media were removed and the luciferase activity expressed in the replicon cells was quantified. When cyto-toxicity was measured, duplicate 96 well plates were plated with BHK 26.5 replicon cells. One plate was used for luciferase assay and one plate was used for measuring toxicity using MTT assay.
# (§2) Compound toxicity was determined by MTT assay. For the MTT assay, the cell medium was removed and the monolayers were incubated with 100 μl/well of 0.5 mg/ml MTT for 6 h at 37° C. The MTT solution was then aspirated and 100 μl/well of the 10% SDS (in 0.01N HCl) was added, followed by spectrophotometric quantitation (570 nm) of the insoluble MIT reaction product.
# [2] = test system: WNV replicon; assay: WNV replicon luciferase assay in BHK 26.5 cells (HTS, re-test, IC50); format: cell-based, West Nile virus; details: for IC50: West Nile virus, 24 h; for Fold decrease (HTS) / Fold decrease (Re-test): luciferase activity; for Fold decrease (HTS): 10 μM compound, 24 hours, BHK 26.5 cells; for Fold decrease (Re-test): re-checked at a single 10 μM concentration
# Description: Ten micromolar concentrations of a selected compound were incubated with BHK 26.5 cells expressing luciferase whose activity is dependent upon WNV replicon replication (FIG. 1A). Primary “hits” were defined by the ability to reduce the amount of luciferase enzyme activity by more than 50%, compared to controls.
# To quantify and rank the activity of the 23 remaining compound “hits”, a serial dilution of each compound was incubated with WNV replicon cells to determine the concentration that inhibits 50% of the luciferase readout (IC50s). […] A number of compounds had significant effect only at the highest, 10 μM concentration. However, several compounds had IC50s between 2 and 5 (Table 3), which is very reasonable for primary HTS hits from a compound library. Only a few compounds could cause 90% inhibition in the replicon cells at the concentrations tested.
# as §1
# Luciferase assay was performed by using the STEADY GLO reagent (Promega Corp. Madison, Wis.) according to the manufacturer's recommendation with slight modifications. Briefly, the culture media from the 96 wells were removed by dumping on paper towels.
# 100 μl of a 1:1 mixture of luciferase regent and culture media were added to the plate. After 5-minute incubation, the luminescence was read on a TOPCOUNT (PerkinElmer, Wellesley, Mass.).
# [3] = test system: WNV RNA; assay: Northern blot of WNV RNA in compound treated replicon cells; format: cell-based, West Nile virus; details: for WNV RNA replication / RNA level (northern blot): 10 μM, 48 hours; for WNV RNA reduction: 48-hour treatment, compounds 10 μM
# Description: FIG. 6 is a picture of a Northern blot gel of compound treated WNV replicon cells. 4×10^4 cells were seeded in 24 well plates. After 24 hours, the cells were treated with DMSO (lanes 2, 3) or the non-specific inhibitors, MPA (lane 1) or the compounds […] (lane 4), 18-B3 (lane 5) or 52-F2 (lane 6). After 48 hours, total RNA were isolated, separated on denaturing agrose gels and transferred to nylon membrane. Total RNA from a non-replicon cell (Huh-7 cell) was loaded in lane 7 as negative control. The membrane was probed with [^32P]-dCTP-labeled WNV NS5 and human beta-actin. The signal was quantified using a BioRad phosphoimager and WNV RNA level was calculated using beta-actin as a reference.
# To confirm that the compounds can indeed inhibit WNV RNA replication, the WNV RNA level in the replicon cells treated with compounds by Northern blot analysis. Several hit compounds, 18-B3, 275-F9, 275-D9, 52-F2 and MPA were selected to treat the BHK 26.5 cells at 10 μM. […] The “hit” compounds 18-B3 and 275-F9 reduced WNV RNA by 1.5 and 2 fold, respectively (FIG. 6, lanes 4, 5). 18-B3 is one of the nine compounds that have similar structures while 275-F9 is one from another class of four compounds (Table 3).
# Total cellular RNA was extracted by using the RNEASY kit (Qiagen NV, Netherlands). Northern blot analysis was done according to the protocol of Gu et al. 2002 (8). Briefly, 5 μg total RNA was electrophoresed through a 1.0% agarose gel containing 2.2M formaldehyde, transferred to a nylon membrane and immobilized by UV cross-linking (Stratagene, La Jolla, Calif.). After pre-hybridization in 5 ml of QuickHyb (Amersham, Piscataway, N.J. GE Healthcare, Giles, UK), [2P] dCTP-labeled probe made by random primer labeling of a 2.7 kb NS5 DNA fragment and a human beta-actin DNA at 65° C. The membrane was washed twice in 2×SSC/0.1% SDS for 10 min at room temperature and twice in 0.1×SSC/0.1% SDS for 15 min at 68° C. Membranes were exposed to Molecular Imager FX phosphoimager (BioRad, Hercules, Calif.) and the radiographic signals were collected and quantitated.
# [4] = test system: WNV NS3 protein; assay: Western blot of WNV protein in compound treated replicon cells; format: cell-based, West Nile virus; details: 48-hour treatment, up to 10 uM; MPA 2.5 ug/ml
# Description: Mycophenolic acid (MPA) was used as positive control in the experiment. 4×10^4 cells were seeded in 24 well plates 24 hours before the various concentrations of compounds were added. After 48 hours of drug treatment, SDS-Sample buffer were added to the wells to lyse the cells. The protein samples were separated on SDS-PAGE and transferred to PVDF membrane. Viral protein was detected by probing with a monoclonal antibody against WNV. The same membrane was stripped and probed for beta-actin with the signals shown at the bottom of the blot.
# Although it is reassuring that multiple tests have yielded similar positive results, the ability of the compounds to inhibit WNV replication was further assessed in secondary assays. In the western blot analysis shown in FIG. 5, total cell proteins were prepared from WNV replicon cells treated with the hit compounds and the viral protein NS3 was detected with a monoclonal […] against West Nile virus (15). The same blots were stripped and probed for beta-actin to show equal loading. […] When compared with the IC50 determined for these compounds in the luciferase assay, there was a good correlation between the luciferase reduction and the viral protein reduction.
# Total cell lysates from replicon cells were harvested from replicon cells in 1×SDS sample buffer. The lysates were heated at 70° C. for 10 min in the presence of DTT before electrophoresis on a 10% Tris-glycine SDS polyacrylamide gel (Invitrogen) in 1× Tris-glycine buffer. The protein was transferred to PVDF (Invitrogen) membrane. Following the transfer, the membrane was rinsed once with TBS containing 0.5% Tween-20 (TBS-Tween) and blocked in TBS-Tween containing 5% non-fat milk for 1 h. After washing with PBS-Tween, the membrane was incubated with the primary WNV antibody (15) at 1:3000 dilutions for 1 h at 25° C. Prior to incubation with HRP conjugated-mouset IgG secondary antibody (Amersham, Life Science, Piscataway, N.J.) diluted 1:5000, the blot was washed in PBS-Tween. Following the secondary antibody incubation, the blot was washed again and treated with Super Signal Chemiluminescent Reagent (Pierce) according to the manufacturer's protocol and exposed to X-ray film. For controls, the blots were stripped and re-probed with an antibody to beta-actin (Chemicon), which was detected with a goat anti-mouse horseradish peroxidase conjugate.
# [5] = test system: BHK cells; assay: toxicity (MTT, CC50) in BHK cells parallel to WNV infection assay; format: cell-based; details: 20 μM, parallel toxicity assessment
# Description: Several of these original compounds selected from the WNV replicon based screen were evaluated in an antiviral assay against WNV live virus. […] Modifications of this compound would be further investigated
# The toxicity of 101-G7 was also measured by MTT assay and CC50 was calculated. 40 μM is highest concentration used.
# as §2
# [6] = test system: WNV; assay: WNV yield reduction assay (live virus) on BHK cells; format: cell-based, West Nile virus
# Description: The antiviral assay for the 309-F6 compounds was conducted on BHK cells. The virus produced in the presence of 1% DMSO or various concentrations of compounds was tittered on Vero cells. The amount of virus relative to the 1% DMSO control was plotted on the y-axis; the concentration of the compound 309F6 is shown in μM on the x-axis. Data from two independently treated wells (Test 1 and Test 2) are shown.
# To measure activity against live WNV, BHK cells were plated in 96-well plates at a concentration of 12,000 cells/well. One day later the cells were infected with WNV for 1 h at an MOI of 0.05. The cells were then washed once and re-fed with fresh DMEM containing dilutions of the test compound. Plates were then incubated at 37° C. for 48 h, the supernatant collected and the WNV produced titered. For virus titration, Vero cells were plated in 96-well plates at 8000 cells/well and incubated overnight. The Vero cell monolayer were then infected for 1 h with various dilutions of the WNV supernatant, overlaid with media containing 0.6% tragacanth (ICN, CA) and incubated at 37° C. for 48 h. The culture media was then aspirated; the plate was rinsed, air-dried, and fixed with 50 μl/well acetone/methanol (50:50). Viral foci were detected for enumeration by immunostaining as described previously (15).
Compound,Toxicity (uM)* [1] [µM],IC50 [2] [µM],Fold decrease (HTS) [2] [Fold],Fold decrease (Re-test) [2] [Fold],WNV RNA replication / RNA level (northern blot) [3],WNV RNA reduction [3] [fold],WNV NS3 protein level (western blot) [4],cell toxicity [5],"WNV titer reduced ([6]; 20 μM, BHK cells, titered on Vero cells)",selective index ([6]; estimated),activity in the WNV infection assay ([6]; live WNV)
"COc1ccc(-n2nc3c(c2NC(=O)c2cccs2)CSC3)cc1 [Compound 18-B3, Thiophene-2-carboxylic acid [2-(4-methoxy-phenyl)-2,6-dihydro-4H-thieno[3,4-c]pyrazol-3-yl]-amide]",>30,5,3,2,clearly inhibited the WNV RNA replication,1.5,–,–,–,–,–
"Cc1ccc(CCNC(=O)c2cnn3c(O)c(Cc4ccccc4F)c(C)nc23)cc1 [Compound 310-B3, 6-(2-Fluoro-benzyl)-7-hydroxy-5-methyl-pyrazolo[1,5-a]pyrimidine-3-carboxylic acid (2-p-tolyl-ethyl)-amide]",>10,10,17,4,–,–,reduced viral protein only at the 10 uM,–,–,–,–
"Cc1nc2c(C(=O)NCCC3=CCCCC3)cnn2c(O)c1Cc1ccccc1Cl [Compound 275-F9, 6-(2-Chloro-benzyl)-7-hydroxy-5-methyl-pyrazolo[1,5-a]pyrimidine-3-carboxylic acid (2-cyclohex-1-enyl-ethyl)-amide]",>10,7.5,27,4.5,clearly capable of reducing the WNV RNA level,2,–,–,–,–,–
"COc1ccc(CC(=O)Nc2ccc(C(=N)NO)cc2)cc1 [Compound 331-D11, N-[4-(N-Hydroxycarbamimidoyl)-phenyl]-2-(4-methoxy-phenyl)-acetamide]",>30,5,4,2,–,–,dose dependency is also clearly seen,–,–,–,–
"COc1ccc(-n2nc3c(c2NC(=O)c2ccc(S(=O)(=O)N4CCCCC4)cc2)CSC3)cc1 [Compound 18-D2, N-[2-(4-Methoxy-phenyl)-2,6-dihydro-4H-thieno[3,4-c]pyrazol-3-yl]-4-(piperidine-1-sulfonyl)-benzamide]",>30,7.5,3,2.8,–,–,dose dependency is also clearly seen,–,–,–,–
"CCN(CCNC(=O)c1cnn2c(O)c(Cc3ccccc3F)c(C)nc12)c1ccccc1 [Compound 309-F6, 6-(2-Fluoro-benzyl)-7-hydroxy-5-methyl-pyrazolo[1,5-a]pyrimidine-3-carboxylic acid [2-(ethyl-phenyl-amino)-ethyl]-amide]",>10,10,7,6,–,–,reduced viral protein only at the 10 uM,only slight cell toxicity,approximately 90%,more than 8,inhibited WNV production
